ChEMBL document CHEMBL4145553, “Design, synthesis, and biological evaluation of novel amide and hydrazide based thioether analogs targeting Histone deacteylase (HDAC) enzymes” (Eur J Med Chem, 2018)
Active and inactive are the calls of the source. The rule behind the calls is not given here.

Assays:
NCI-H322M [1] = test: Growth inhibition of human NCI-H322M cells assessed as cell growth at 10^-7 M incubated for 48 hrs by sulforhodamine B assay relative to control; format: functional; details: read-out: Activity
ACHN = test: Growth inhibition of human ACHN cells assessed as cell growth at 10^-8 M incubated for 48 hrs by sulforhodamine B assay relative to control; format: functional; details: read-out: Activity
HL-60 [2] = test: Downregulation of HDAC2 mRNA expression in human HL60 cells by qRT-PCR method relative to control; format: functional
SF-268 = test: Growth inhibition of human SF268 cells assessed as cell growth at 10^-7 M incubated for 48 hrs by sulforhodamine B assay relative to control; format: functional; details: SF-268, 48 h, read-out: Activity
SN12C [3] = test: Growth inhibition of human SN12C cells assessed as cell growth at 10^-4 M incubated for 48 hrs by sulforhodamine B assay relative to control; format: functional; details: read-out: Activity
UACC-62 = test: Growth inhibition of human UACC62 cells incubated for 48 hrs by sulforhodamine B assay; format: functional; details: UACC-62, 48 h
HL-60 [4] = test: Induction of apoptosis in human HL60 cells assessed as late apoptotic cells by propidium iodide/Annexin V staining based flow cytometry (reference value: 0.54%); format: functional
DU-145 = test: Growth inhibition of human DU145 cells assessed as cell growth at 10^-4 M incubated for 48 hrs by sulforhodamine B assay relative to control; format: functional; details: DU-145, 48 h, read-out: Activity
MCF7 = test: Growth inhibition of human MCF7 cells incubated for 48 hrs by sulforhodamine B assay; format: functional; details: MCF7, 48 h
MDA-MB-435 [5] = test: Induction of apoptosis in human MDA-MB-435 cells assessed as live cells by propidium iodide/Annexin V staining based flow cytometry (reference value: 97.4%); format: functional
OVCAR-4 [6] = test: Growth inhibition of human OVCAR4 cells assessed as cell growth at 10^-8 M incubated for 48 hrs by sulforhodamine B assay relative to control; format: functional; details: OVCAR-4, 48 h, read-out: Activity
A498 = test: Growth inhibition of human A498 cells assessed as cell growth at 10^-4 M incubated for 48 hrs by sulforhodamine B assay relative to control; format: functional; details: A498, 48 h, read-out: Activity
MDA-MB-435 [7] = test: Growth inhibition of human MDA-MB-435 cells incubated for 48 hrs by sulforhodamine B assay; format: functional; details: MDA-MB-435, 48 h
KM12 = test: Growth inhibition of human KM12 cells assessed as cell growth at 10^-7 M incubated for 48 hrs by sulforhodamine B assay relative to control; format: functional; details: KM12, 48 h, read-out: Activity
BT-549 = test: Growth inhibition of human BT549 cells assessed as cell growth at 10^-6 M incubated for 48 hrs by sulforhodamine B assay relative to control; format: functional; details: BT-549, 48 h, read-out: Activity
U-251 [8] = test: Growth inhibition of human U251 cells assessed as cell growth at 10^-4 M incubated for 48 hrs by sulforhodamine B assay relative to control; format: functional; details: U-251, 48 h, read-out: Activity
SN12C [9] = test: Growth inhibition of human SN12C cells assessed as cell growth at 10^-5 M incubated for 48 hrs by sulforhodamine B assay relative to control; format: functional; details: read-out: Activity
UACC-257 = test: Growth inhibition of human UACC257 cells assessed as cell growth at 10^-5 M incubated for 48 hrs by sulforhodamine B assay relative to control; format: functional; details: UACC-257, 48 h, read-out: Activity
U-251 [10] = test: Growth inhibition of human U251 cells assessed as cell growth at 10^-6 M incubated for 48 hrs by sulforhodamine B assay relative to control; format: functional; details: U-251, 48 h, read-out: Activity
SN12C [11] = test: Growth inhibition of human SN12C cells assessed as cell growth at 10^-6 M incubated for 48 hrs by sulforhodamine B assay relative to control; format: functional; details: read-out: Activity
NCI-H322M [12] = test: Growth inhibition of human NCI-H322M cells assessed as cell growth at 10^-5 M incubated for 48 hrs by sulforhodamine B assay relative to control; format: functional; details: read-out: Activity
SR [13] = test: Growth inhibition of human SR cells incubated for 48 hrs by sulforhodamine B assay; format: functional
LOX IMVI = test: Growth inhibition of human LOXIMVI cells assessed as cell growth at 10^-7 M incubated for 48 hrs by sulforhodamine B assay relative to control; format: functional; details: read-out: Activity
SR [14] = test: Growth inhibition of human SR cells assessed as cell growth at 10^-8 M incubated for 48 hrs by sulforhodamine B assay relative to control; format: functional; details: read-out: Activity
MDA-MB-435 [15] = test: Induction of apoptosis in human MDA-MB-435 cells assessed as increase in caspase-9 expression by qRT-PCR method; format: functional, cell-based
K562 = test: Growth inhibition of human K562 cells assessed as cell growth at 10^-7 M incubated for 48 hrs by sulforhodamine B assay relative to control; format: functional; details: K562, 48 h, read-out: Activity
OVCAR-4 [16] = test: Growth inhibition of human OVCAR4 cells assessed as cell growth at 10^-6 M incubated for 48 hrs by sulforhodamine B assay relative to control; format: functional; details: OVCAR-4, 48 h, read-out: Activity
HCT-15 = test: Growth inhibition of human HCT15 cells assessed as cell growth at 10^-6 M incubated for 48 hrs by sulforhodamine B assay relative to control; format: functional; details: HCT-15, 48 h, read-out: Activity
COLO 205 = test: Growth inhibition of human COLO205 cells assessed as cell growth at 10^-7 M incubated for 48 hrs by sulforhodamine B assay relative to control; format: functional; details: COLO 205, 48 h, read-out: Activity
CAKI-1 = test: Growth inhibition of human Caki1 cells incubated for 48 hrs by sulforhodamine B assay; format: functional; details: CAKI-1, 48 h
HL-60(TB) = test: Growth inhibition of human HL-60(TB) cells assessed as cell growth at 10^-5 M incubated for 48 hrs by sulforhodamine B assay relative to control; format: functional; details: HL-60, 48 h, read-out: Activity
NCI-H460 = test: Growth inhibition of human NCI-H460 cells assessed as cell growth at 10^-7 M incubated for 48 hrs by sulforhodamine B assay relative to control; format: functional; details: NCI-H460, 48 h, read-out: Activity
[17] = read-out: LC50 (the source's name)
[18] = read-out: pLC50 (the source's name) (converted)

Structure (SMILES): CCS/C(Nc1ccccc1)=C(\C#N)C(=O)N/N=C\c1ccc(Cl)cc1Cl
- growth at 0.1 µM (NCI-H322M [1]): 91%
- growth at 0.01 µM (ACHN): 102%
- fold change (FC) (HL-60 [2]): <=10
- growth at 0.1 µM (SF-268): 94%
- growth at 100 µM (SN12C [3]): 28%
- GI50 (UACC-62; read-out: GI50): 2.74 µM
- CC50 (UACC-62; [17]): > 100 µM
- TGI (UACC-62; read-out: TGI): > 100 µM
- GI50 (UACC-62; read-out: pGI50 (converted)): 2.75 µM
- CC50 (UACC-62; [18]): > 100 µM
- TGI (UACC-62; read-out: pTGI): > 100 µM
- Activity (HL-60 [4]): 8.54%
- growth at 100 µM (DU-145): 8%
- GI50 (MCF7; read-out: GI50): 2.99 µM
- CC50 (MCF7; [17]): > 100 µM
- TGI (MCF7; read-out: TGI): > 100 µM
- GI50 (MCF7; read-out: pGI50 (converted)): 3.02 µM
- CC50 (MCF7; [18]): > 100 µM
- TGI (MCF7; read-out: pTGI): > 100 µM
- Activity (MDA-MB-435 [5]): 91.29%
- growth at 0.01 µM (OVCAR-4 [6]): 98%
- growth at 100 µM (A498): -2%
- GI50 (MDA-MB-435 [7]; read-out: GI50): 0.419 µM
- CC50 (MDA-MB-435 [7]; [17]): 9.26 µM
- TGI (MDA-MB-435 [7]; read-out: TGI): 2.23 µM
- GI50 (MDA-MB-435 [7]; read-out: pGI50 (converted)): 0.417 µM
- CC50 (MDA-MB-435 [7]; [18]): 9.33 µM
- TGI (MDA-MB-435 [7]; read-out: pTGI (converted)): 2.24 µM
- growth at 0.1 µM (KM12): 101%
- growth at 1 µM (BT-549): 76%
- growth at 100 µM (U-251 [8]): 12%
- growth at 10 µM (SN12C [9]): 41%
- growth at 10 µM (UACC-257): 61%
- growth at 1 µM (U-251 [10]): 94%
- growth at 1 µM (SN12C [11]): 96%
- growth at 10 µM (NCI-H322M [12]): 42%
- GI50 (SR [13]; read-out: GI50): 3.45 µM
- CC50 (SR [13]; [17]): > 100 µM
- TGI (SR [13]; read-out: TGI): > 100 µM
- GI50 (SR [13]; read-out: pGI50 (converted)): 3.47 µM
- CC50 (SR [13]; [18]): > 100 µM
- TGI (SR [13]; read-out: pTGI): > 100 µM
- growth at 0.1 µM (LOX IMVI): 96%
- growth at 0.01 µM (SR [14]): 91%
- Activity (MDA-MB-435 [15]): Active
- growth at 0.1 µM (K562): 90%
- growth at 1 µM (OVCAR-4 [16]): 86%
- growth at 1 µM (HCT-15): 77%
- growth at 0.1 µM (COLO 205): 97%
- GI50 (CAKI-1; read-out: GI50): 2.39 µM
- CC50 (CAKI-1; [17]): > 100 µM
- TGI (CAKI-1; read-out: TGI): > 100 µM
- GI50 (CAKI-1; read-out: pGI50 (converted)): 2.4 µM
- CC50 (CAKI-1; [18]): > 100 µM
- TGI (CAKI-1; read-out: pTGI): > 100 µM
- growth at 10 µM (HL-60(TB)): 8%
- growth at 0.1 µM (NCI-H460): 98%

Structure (SMILES): CCS/C(Nc1ccccc1)=C(\C#N)C(=O)Nc1ccc(OC)cc1
- growth at 0.1 µM (NCI-H322M [1]): 92%
- growth at 0.01 µM (ACHN): 101%
- fold change (FC) (HL-60 [2]): <=10
- growth at 0.1 µM (SF-268): 97%
- growth at 100 µM (SN12C [3]): 16%
- GI50 (UACC-62; read-out: GI50): 2.58 µM
- CC50 (UACC-62; [17]): > 100 µM
- TGI (UACC-62; read-out: TGI): > 100 µM
- GI50 (UACC-62; read-out: pGI50 (converted)): 2.57 µM
- CC50 (UACC-62; [18]): > 100 µM
- TGI (UACC-62; read-out: pTGI): > 100 µM
- Activity (HL-60 [4]): 7.19%
- growth at 100 µM (DU-145): -6%
- GI50 (MCF7; read-out: GI50): 2.71 µM
- CC50 (MCF7; [17]): > 100 µM
- TGI (MCF7; read-out: TGI): > 100 µM
- GI50 (MCF7; read-out: pGI50 (converted)): 2.69 µM
- CC50 (MCF7; [18]): > 100 µM
- TGI (MCF7; read-out: pTGI): > 100 µM
- Activity (MDA-MB-435 [5]): 85.55%
- growth at 0.01 µM (OVCAR-4 [6]): 104%
- growth at 100 µM (A498): -12%
- GI50 (MDA-MB-435 [7]; read-out: GI50): 0.37 µM
- CC50 (MDA-MB-435 [7]; [17]): > 100 µM
- TGI (MDA-MB-435 [7]; read-out: TGI): 1.89 µM
- GI50 (MDA-MB-435 [7]; read-out: pGI50 (converted)): 0.372 µM
- CC50 (MDA-MB-435 [7]; [18]): > 100 µM
- TGI (MDA-MB-435 [7]; read-out: pTGI (converted)): 1.91 µM
- growth at 0.1 µM (KM12): 98%
- growth at 1 µM (BT-549): 74%
- growth at 100 µM (U-251 [8]): 6%
- growth at 10 µM (SN12C [9]): 37%
- growth at 10 µM (UACC-257): 56%
- growth at 1 µM (U-251 [10]): 94%
- growth at 1 µM (SN12C [11]): 96%
- growth at 10 µM (NCI-H322M [12]): 38%
- GI50 (SR [13]; read-out: GI50): 1.54 µM
- CC50 (SR [13]; [17]): > 100 µM
- TGI (SR [13]; read-out: TGI): > 100 µM
- GI50 (SR [13]; read-out: pGI50 (converted)): 1.55 µM
- CC50 (SR [13]; [18]): > 100 µM
- TGI (SR [13]; read-out: pTGI): > 100 µM
- growth at 0.1 µM (LOX IMVI): 96%
- growth at 0.01 µM (SR [14]): 98%
- Activity (MDA-MB-435 [15]): Active
- growth at 0.1 µM (K562): 88%
- growth at 1 µM (OVCAR-4 [16]): 88%
- growth at 1 µM (HCT-15): 53%
- growth at 0.1 µM (COLO 205): 97%
- GI50 (CAKI-1; read-out: GI50): 3.39 µM
- CC50 (CAKI-1; [17]): > 100 µM
- TGI (CAKI-1; read-out: TGI): > 100 µM
- GI50 (CAKI-1; read-out: pGI50 (converted)): 3.39 µM
- CC50 (CAKI-1; [18]): > 100 µM
- TGI (CAKI-1; read-out: pTGI): > 100 µM
- growth at 10 µM (HL-60(TB)): 7%
- growth at 0.1 µM (NCI-H460): 98%
